{"source": "patent EP0271099A2", "about": "“Substituted aminopropionic acid amides, process for their preparation, agents containing them and their use as well as the intermediates formed during the preparation” (HOECHST AKTIENGESELLSCHAFT, priority 1986, dated 1988)"}
{"tested_on": "ECS-Amnesie", "assay": "Inhibitory (passive) avoidance test, reversal of amnesia induced by electroconvulsive shock", "assay_type": "in vivo, Mäusen", "conditions": "Mus musculus, po, read-out: Inhibitory avoidance MED mg/kg p.o. ECS-Amnesie", "excerpt": "(§1) Die Verbindungen der Formel I besitzen wertvolle pharmakologische Eigenschaften, insbesondere nootrope. Die nootrope Wirkung der erfindungsgemäßen Verbindungen wurde an Mäusen, die ein Köpergewicht von 20-25 g besaßen, im inhibitory (passive) avoidance test geprüft. Eine modifizierte Form der von J. Kopp, Z. Bodanecky und M.E. Jarvik beschriebenen Testmethode wurde von J. Bures, O. Buresova und J. Huston im \"Techniques and Basic Experiments for the Study of Brain and Behavior\", Elsevier Scientific Publishers, Amsterdam 1983, beschrieben.\n(§2) Entsprechend diesen Literaturangaben wird eine Substanz dann als nootrop wirksam bezeichnet, wenn sie bei den Versuchstieren die mittels eines elektroconvulsiven Schocks erzeugte Amnesie (ECS-Amnesie) aufzuheben vermag.\n(§3) Die Versuche wurden nach modifizierten Testmethoden mit den erfindungsgemäßen Verbindungen durchgeführt. Als Vergleichsverbindung diente das bekannte Nootropikum 2-Oxo-1-pyrrolidinylessigsäureamid (Piracetam). Die deutliche Überlegenheit der erfindungsgemäßen Verbindungen über die Vergleichssubstanz zeigte sich darin, daß der amnestische Effekt bereits mit einer MED (minimal effective dosis) von 0,1-10 mg/kg p.o. aufzuheben ist. Die Vergleichssubstanz hat eine MED von ca. 500-1000 mg/kg p.o..", "units": {"minimal effective dose": "mg/kg"}}
{"smiles": "O=C(O)CCc1ccc(NC(=O)CCN2CC=C(c3cccc(Cl)c3)CC2)cc1", "note": "[Beispiel 49, 3-{4-[3-(4-(3-Chlorphenyl)-1,2,5,6-tetrahydropyridino)-propionamido]-phenyl}-propionsäure]", "minimal effective dose": 25}
{"smiles": "NC(=O)CN1CCCC1=O", "note": "[Piracetam, 2-Oxo-1-pyrrolidinylessigsäureamid, reference compound]", "minimal effective dose": 1000}
{"tested_on": "ECS-Amnesie", "assay": "Inhibitory (passive) avoidance test, reversal of amnesia induced by electroconvulsive shock", "assay_type": "in vivo, Mäusen", "conditions": "Mus musculus, po, read-out: MED (minimal effective dosis)", "excerpt": "as §1, §2, §3", "units": {"minimal effective dose": "mg/kg"}}
{"smiles": "NC(=O)CN1CCCC1=O", "note": "[Piracetam, 2-Oxo-1-pyrrolidinylessigsäureamid, reference compound]", "minimal effective dose": "500 to 1000"}
{"tested_on": "ECS-Amnesie", "assay": "Inhibitory (passive) avoidance test, reversal of amnesia induced by electroconvulsive shock", "assay_type": "in vivo, Mäusen", "conditions": "Mus musculus; mice 20-25 g, oral; MED = minimal effective dosis reversing ECS-Amnesie; Table 1; read-out: Inhibitory avoidance MED mg/kg p.o. ECS-Amnesie", "excerpt": "as §1, §2, §3", "units": {"minimal effective dose": "mg/kg"}}
{"smiles": "O=C(O)CCc1ccc(NC(=O)CCN2CCN(c3cccc(Cl)c3)CC2)cc1", "note": "[Beispiel 34, 3-{4-(3-(4-(3-Chlorphenyl)-piperazino)-propionamido]-phenyl}-propionsäure]", "minimal effective dose": 1.6}
{"smiles": "O=C(O)C=Cc1ccc(NC(=O)CCN2CCN(c3cccc(Cl)c3)CC2)cc1", "note": "[Beispiel 35, 4-{3-[4-(3-Chlorphenyl)-piperazino]-propionamido}-zimtsäure]", "minimal effective dose": 50}
{"smiles": "O=C(O)CCCc1ccc(NC(=O)CCN2CCC(c3ccccc3)CC2)cc1", "note": "[Beispiel 45, 4-{4-[3-(4-Phenylpiperidino)-propionamido]-phenyl}-buttersäure]", "minimal effective dose": 25}
{"smiles": "O=C(O)CCc1ccc(NC(=O)CCN2CCN(c3ccccc3)CC2)cc1", "note": "[Beispiel 46, 3-{4-[3-(4-Phenylpiperazino)-propionamido]-phenyl}-propionsäure]", "minimal effective dose": 25}
{"smiles": "O=C(O)CCc1ccc(NC(=O)CCN2CCN(CCCc3ccccc3)CC2)cc1", "note": "[Beispiel 47, 3-{4-[3-(4-(3-Phenylpropyl)-piperazino)-propionamido]-phenyl}-propionsäure]", "minimal effective dose": 25}
{"smiles": "O=C(O)CCc1ccc(NC(=O)CCNCCCc2ccccc2)cc1", "note": "[Beispiel 48, 3-{4-[3-(3-Phenylpropylamino)-propionamido]-phenyl}-propionsäure]", "minimal effective dose": 50}
